Columns and labels:
Conditions in all cases: 72 h
[1] = tested on: Caco-2; assay: drug sensitivity score (DSS) for viability; higher = more toxic; extreme values may be limits of the assay
[2] = tested on: HepG2; assay: as above
[3] = tested on: Vero E6; assay: as above
[4] = tested on: U2OS; assay: as above
[5] = tested on: Calu-3; assay: as above
[6] = tested on: Caco-2; assay: cell viability relative to DMSO; higher = less toxic
[7] = tested on: HepG2; assay: as above
[8] = tested on: Vero E6; assay: as above
[9] = tested on: U2OS; assay: as above
[10] = tested on: Calu-3; assay: as above
[11] = tested on: Caco-2; assay: relative viability EC50 (midpoint between 100% and the lowest measured viability); higher = less toxic
[12] = tested on: HepG2; assay: as above
[13] = tested on: Vero E6; assay: as above
[14] = tested on: U2OS; assay: as above
[15] = tested on: Calu-3; assay: as above

Row | Structure (SMILES) | drug sensitivity score [1] | drug sensitivity score [2] | drug sensitivity score [3] | drug sensitivity score [4] | drug sensitivity score [5] | cell viability ([6]; 1 nM) [%] | cell viability ([6]; 10 nM) [%] | cell viability ([6]; 100 nM) [%] | cell viability ([6]; 1000 nM) [%] | cell viability ([6]; 10000 nM) [%] | cell viability ([7]; 1 nM) [%] | cell viability ([7]; 10 nM) [%] | cell viability ([7]; 100 nM) [%] | cell viability ([7]; 1000 nM) [%] | cell viability ([7]; 10000 nM) [%] | cell viability ([8]; 1 nM) [%] | cell viability ([8]; 10 nM) [%] | cell viability ([8]; 100 nM) [%] | cell viability ([8]; 1000 nM) [%] | cell viability ([8]; 10000 nM) [%] | cell viability ([9]; 1 nM) [%] | cell viability ([9]; 10 nM) [%] | cell viability ([9]; 100 nM) [%] | cell viability ([9]; 1000 nM) [%] | cell viability ([9]; 10000 nM) [%] | cell viability ([10]; 1 nM) [%] | cell viability ([10]; 10 nM) [%] | cell viability ([10]; 100 nM) [%] | cell viability ([10]; 1000 nM) [%] | cell viability ([10]; 10000 nM) [%] | relative viability EC50 [11] [µM] | relative viability EC50 [12] [µM] | relative viability EC50 [13] [µM] | relative viability EC50 [14] [µM] | relative viability EC50 [15] [µM]
1 | N#C/C(=C1/SCC(c2ccccc2Cl)S1)n1ccnc1 (stereo not given) [lanoconazole] | 0 | 0.8 | 0 | 0 | 0 | 96.6 | 106 | 99.7 | 101 | 102 | 93.3 | 95.5 | 99.9 | 97.6 | 81.6 | 100 | 99.1 | 95.2 | 92.5 | 94.9 | 99.1 | 99.9 | 97.4 | 96.8 | 89.8 | 96.9 | 103 | 103 | 108 | 86.6 | > 10 | > 10 | > 10 | > 10 | > 10
2 | CC(=O)N[C@@H](Cc1c[nH]c2ccccc12)C(=O)OCc1cc(C(F)(F)F)cc(C(F)(F)F)c1 [L-732,138] | 0 | 0 | 0 | 0 | 0 | 91.7 | 92.8 | 96.4 | 97.5 | 92.8 | 91.1 | 106 | 105 | 104 | 105 | 89.1 | 97.3 | 86.3 | 95.3 | 109 | 96.7 | 94.7 | 97.4 | 94.4 | 99.2 | 95.4 | 102 | 92.6 | 103 | 102 | > 10 | > 10 | > 10 | > 10 | > 10
3 | CC[C@@H](CO)NCCN[C@@H](CC)CO [ethambutol] | 0 | 0 | 0 | 0 | 0 | 99.1 | 92.3 | 97.6 | 102 | 104 | 93.3 | 108 | 90.3 | 95.2 | 98.7 | 92.3 | 98.2 | 90.8 | 99.1 | 102 | 103 | 98 | 103 | 96.5 | 99.3 | 98.9 | 88.7 | 96 | 90.4 | 96.7 | > 10 | > 10 | > 10 | > 10 | > 10
4 | CC(=O)N[C@@H](CCC(N)=O)C(=O)O [aceglutamide] | 3.5 | 0 | 0.3 | 0 | 0 | 95.5 | 103 | 84.5 | 82.4 | 83 | 90.7 | 89.7 | 104 | 92.5 | 86.4 | 98.3 | 104 | 99.8 | 99.9 | 83.7 | 106 | 103 | 99.2 | 98.8 | 98.5 | 101 | 89.8 | 101 | 110 | 103 | > 10 | > 10 | > 10 | > 10 | > 10
5 | CN(C)CCC=C1c2ccccc2C=Cc2ccccc21 [cyclobenzaprine] | 0 | 0 | 0 | 0 | 0 | 102 | 108 | 101 | 98.8 | 114 | 111 | 97.9 | 104 | 113 | 103 | 100 | 99.6 | 92.2 | 107 | 101 | 102 | 98.4 | 103 | 101 | 104 | 98.8 | 99.3 | 94.8 | 99 | 101 | > 10 | > 10 | > 10 | > 10 | > 10
6 | CC(=O)Nc1ccc(O)cc1 [paracetamol] | 0 | 0.6 | 0 | 0 | 0 | 91.7 | 103 | 94.7 | 98.2 | 98.8 | 99.5 | 104 | 88.8 | 94.3 | 92.5 | 97.9 | 95.4 | 102 | 92.5 | 102 | 99.9 | 101 | 95.4 | 102 | 93.7 | 94.7 | 96.6 | 97.2 | 99.8 | 99 | > 10 | > 10 | > 10 | > 10 | > 10
7 | COCC(=O)Nc1c(I)c(C(=O)NCC(O)CO)c(I)c(C(=O)N(C)CC(O)CO)c1I (stereo not given) [iopromide] | 0 | 0 | 0 | 0 | 0 | 93.6 | 101 | 93.7 | 98.4 | 102 | 98 | 89.1 | 89.1 | 85.2 | 95.6 | 100 | 104 | 93.9 | 94.9 | 104 | 99 | 101 | 99.1 | 100 | 95.1 | 110 | 104 | 93.1 | 94.9 | 96.1 | > 10 | > 10 | > 10 | > 10 | > 10
